Active and inactive are the calls of the source.
How the values were obtained:
[1] = viability of uninfected HEp-2 cells – cell-based, HTS, cytotoxicity control for RSV inhibitor project, dose response (AID 2410); type: functional; conditions: human respiratory syncytial virus
[2] = Luminescence Cell-Based Dose Confirmation HTS to Identify Activators of 5'UTR Stem-Loop Driven Alpha-Synuclein mRNA Translation in H4 Neuroglioblastoma Cells. [Related pubchem assays: 1829 (Project Summary), 1814 (Primary HTS)]; type: functional
[3] = Luminescence Cell-Based Dose Response HTS to Identify Activators of Luciferase Translation or Activity in H4 […] Cells. [Related pubchem assays: 1829 (Project Summary), 1814 (Primary HTS)]; type: functional
[4] = tested on: H4; test: Luminescence Cell-Based Dose Response HTS to Identify Activators of 5'UTR Stem-Loop Driven Prion Protein mRNA Translation in H4 Neuroglioblastoma Cells. [Related pubchem assays: 1829 (Project Summary), 1814 (Primary HTS)]; type: functional; conditions: Homo sapiens
[5] = molecular target: Paired box protein Pax-8 (Homo sapiens, UniProt Q06710); test: PAX8 transcriptional activity inhibition in RMG-I – RMG-I cells, luciferase, cherry-pick, dose response (AID 687027); type: functional, cell-based;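 also: luciferase reporter driven by Pax8 target thyroperoxidase promoter measured by SteadyGlo luminescence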
[6] = NIH-3T3 fibroblast cytotoxicity, dose response, cytotoxicity control, cell-based, fluorescence, Alamar Blue, secondary assay (AID 2327); type: functional;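 also: NIH-3T3 mouse fibroblasts cultured with fluconazole at 8 µg/mL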
[7] = molecular target: FAD-linked sulfhydryl oxidase ALR (Homo sapiens, UniProt P55789); test: ALR-catalysed DTT oxidation blockers – biochemical, H2O2 detection, luminescence, cherry-pick, dose response (AID 493248)
[8] = molecular target: T1, Rac GTPase-activating protein 1 (Homo sapiens, UniProt Q9H0H5); test: blockers of MgcRacGAP-driven Rac1 GTP hydrolysis – biochemical, ADP Hunter fluorescence, primary and confirmatory, confirmation (AID 624330); type: functional
T1 sequence (Q9H0H5 whole entry): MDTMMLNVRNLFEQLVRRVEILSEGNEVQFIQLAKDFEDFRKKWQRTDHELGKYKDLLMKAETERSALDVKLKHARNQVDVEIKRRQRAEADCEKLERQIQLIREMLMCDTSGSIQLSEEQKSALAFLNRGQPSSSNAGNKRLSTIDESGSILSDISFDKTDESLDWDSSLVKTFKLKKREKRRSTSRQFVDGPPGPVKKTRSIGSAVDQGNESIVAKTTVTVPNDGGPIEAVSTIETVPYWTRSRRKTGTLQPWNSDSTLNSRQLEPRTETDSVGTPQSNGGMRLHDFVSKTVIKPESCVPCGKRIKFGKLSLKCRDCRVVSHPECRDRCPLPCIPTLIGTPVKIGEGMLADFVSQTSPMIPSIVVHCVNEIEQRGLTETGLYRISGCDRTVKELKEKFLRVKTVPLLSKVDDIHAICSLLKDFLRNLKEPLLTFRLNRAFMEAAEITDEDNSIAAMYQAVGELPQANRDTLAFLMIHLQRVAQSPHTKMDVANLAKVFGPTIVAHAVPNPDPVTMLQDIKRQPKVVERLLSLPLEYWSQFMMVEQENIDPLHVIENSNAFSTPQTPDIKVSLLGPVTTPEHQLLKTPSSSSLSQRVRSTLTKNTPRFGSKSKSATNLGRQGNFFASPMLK

[9] = tested on: H9c2; test: cells; type: functional, cell-based; conditions: Rattus norvegicus, H9c2, Myocardium;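 also: confirmatory concentration-response retest of ultra-high-throughput screening hits for modulation of myocardial damage; cell death induced by hydrogen peroxide oxidative stress; compound pretreatment for 60 min then peroxide exposure for 2 h; potency is for protecting the cells against peroxide damage rather than for killing them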
[10] = molecular target: Cytochrome P450 2C19 (Homo sapiens, UniProt P33261); test: Cytochrome panel assay with activity outcomes. Panel member name: p450-cyp2c19 Compounds with AC50 equal or less than 10 uM are considered active; type: functional; conditions: read-out: AC50
[11] = molecular target: Cytochrome P450 3A4 (Homo sapiens, UniProt P08684);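 also: CYP3A4 tested as one member of a cytochrome P450 panel screen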
[12] = molecular target: Cytochrome P450 2C9 (Homo sapiens, UniProt P11712)
[13] = reduction of Shn3 3'UTR-driven luciferase in osteoblasts – cell-based, Clone20 osteoblasts, firefly luciferase, cherry-picked, dose response (AID 624132); type: functional;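 also: firefly luciferase luminescence from reporter carrying the Shn3 3'UTR in osteoblasts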
[14] = non-specific 3'UTR reporter inhibition in Clone20-Shn3RL – cell-based, Renilla luciferase, cherry-picked, counter-screen for Shn3 inhibitor project, dose response (AID 624133); type: functional
[15] = tested on: INS1; test: INS-1E survival protection against cytokine death – cell-based, luminescence, retest, dose response (AID 449756); type: functional; conditions: Rattus norvegicus;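 also: cell death triggered by IL-1 beta plus TNF-alpha plus IFN-gamma mixture; protective hits raise ATP signal compared with cytokine alone wells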

Sequence of Paired box protein Pax-8 (Q06710 whole entry): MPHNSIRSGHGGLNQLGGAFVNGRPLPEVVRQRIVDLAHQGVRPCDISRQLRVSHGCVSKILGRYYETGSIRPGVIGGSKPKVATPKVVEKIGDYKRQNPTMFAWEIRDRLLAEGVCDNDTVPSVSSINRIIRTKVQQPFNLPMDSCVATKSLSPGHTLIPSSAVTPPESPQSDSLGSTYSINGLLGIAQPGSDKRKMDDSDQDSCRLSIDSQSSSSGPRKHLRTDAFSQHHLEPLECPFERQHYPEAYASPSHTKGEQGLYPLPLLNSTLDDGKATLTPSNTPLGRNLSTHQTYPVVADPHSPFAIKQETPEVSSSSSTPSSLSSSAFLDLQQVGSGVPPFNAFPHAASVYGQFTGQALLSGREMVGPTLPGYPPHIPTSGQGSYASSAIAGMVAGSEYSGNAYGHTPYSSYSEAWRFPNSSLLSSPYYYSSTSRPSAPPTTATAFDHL
Sequence of FAD-linked sulfhydryl oxidase ALR (P55789 whole entry): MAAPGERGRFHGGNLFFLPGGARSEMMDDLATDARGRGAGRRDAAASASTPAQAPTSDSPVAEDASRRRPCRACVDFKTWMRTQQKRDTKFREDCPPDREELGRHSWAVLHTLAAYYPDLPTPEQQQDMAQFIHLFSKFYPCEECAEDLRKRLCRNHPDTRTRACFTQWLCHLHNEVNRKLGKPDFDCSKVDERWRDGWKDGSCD
Sequence of Cytochrome P450 2C19 (P33261 whole entry): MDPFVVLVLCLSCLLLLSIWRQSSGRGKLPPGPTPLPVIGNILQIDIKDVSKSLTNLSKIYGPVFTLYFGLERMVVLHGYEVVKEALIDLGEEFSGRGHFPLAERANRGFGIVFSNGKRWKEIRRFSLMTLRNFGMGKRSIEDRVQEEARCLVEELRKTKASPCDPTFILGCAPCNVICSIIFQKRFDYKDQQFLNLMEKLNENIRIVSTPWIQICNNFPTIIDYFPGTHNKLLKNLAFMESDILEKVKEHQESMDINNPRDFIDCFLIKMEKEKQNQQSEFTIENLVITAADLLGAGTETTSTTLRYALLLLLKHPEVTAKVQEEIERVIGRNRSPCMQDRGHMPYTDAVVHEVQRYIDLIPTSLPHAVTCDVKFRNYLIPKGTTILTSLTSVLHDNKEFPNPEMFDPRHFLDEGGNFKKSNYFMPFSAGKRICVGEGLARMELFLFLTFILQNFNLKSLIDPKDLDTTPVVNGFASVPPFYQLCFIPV
Sequence of Cytochrome P450 2C9 (P11712 whole entry): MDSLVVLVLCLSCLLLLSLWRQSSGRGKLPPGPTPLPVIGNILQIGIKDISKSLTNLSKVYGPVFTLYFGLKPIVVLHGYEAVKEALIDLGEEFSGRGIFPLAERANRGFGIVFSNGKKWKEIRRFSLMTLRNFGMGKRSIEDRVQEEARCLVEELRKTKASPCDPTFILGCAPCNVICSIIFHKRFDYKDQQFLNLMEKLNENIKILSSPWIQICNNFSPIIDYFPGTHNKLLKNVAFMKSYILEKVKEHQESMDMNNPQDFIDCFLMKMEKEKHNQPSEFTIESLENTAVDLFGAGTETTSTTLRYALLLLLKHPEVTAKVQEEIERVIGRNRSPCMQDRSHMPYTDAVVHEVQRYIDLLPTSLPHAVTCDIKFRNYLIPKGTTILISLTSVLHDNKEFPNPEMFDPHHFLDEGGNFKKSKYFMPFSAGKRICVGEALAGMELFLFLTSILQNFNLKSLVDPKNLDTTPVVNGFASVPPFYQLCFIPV
Sequence of Cytochrome P450 3A4 (P08684 whole entry): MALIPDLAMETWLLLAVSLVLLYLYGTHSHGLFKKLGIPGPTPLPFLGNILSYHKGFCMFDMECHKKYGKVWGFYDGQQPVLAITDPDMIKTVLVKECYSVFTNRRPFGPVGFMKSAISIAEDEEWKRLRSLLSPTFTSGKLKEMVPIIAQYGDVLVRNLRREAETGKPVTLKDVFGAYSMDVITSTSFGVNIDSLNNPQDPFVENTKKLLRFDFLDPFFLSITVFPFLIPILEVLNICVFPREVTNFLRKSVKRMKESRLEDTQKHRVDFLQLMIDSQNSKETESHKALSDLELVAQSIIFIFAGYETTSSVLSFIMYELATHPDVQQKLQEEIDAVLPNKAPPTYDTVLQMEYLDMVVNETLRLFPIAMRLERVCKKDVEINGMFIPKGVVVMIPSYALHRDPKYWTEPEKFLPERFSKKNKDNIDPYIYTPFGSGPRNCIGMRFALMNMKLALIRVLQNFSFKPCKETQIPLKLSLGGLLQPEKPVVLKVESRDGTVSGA

CN1C/C(=C\c2ccc(N3CCOCC3)cc2)C(=O)/C(=C/c2ccc(N3CCOCC3)cc2)C1
CC50 [1]: 22.8 µM (active)
EC50 [2]: 23.7 µM (active)
EC50 [3]: 48.1 µM (active)
EC50 [4]: > 120 µM (not active)

COc1ccc(C(=O)CCS(=O)(=O)c2ccc(C)cc2)cc1OC
AC50 [5]: 9.82 µM (active)

COc1ccc(C2=CSC3=NNC4(CCCCC4)NN23)cc1
EC50 [6]: 38.8 µM (active)
AC50 [7]: 1.42 µM (active)

COc1cc(OC)cc(C(=O)N2CCN=C2SCc2cccnc2)c1
AC50 [7]: 0.154 µM (active)

Cc1nc(SCc2ccc(C(=O)O)cc2)nc2c1CCCC2
AC50 [7]: 3.29 µM (active)

O=C(COc1ccc2ccccc2c1)N1CCN(Cc2ccncc2)CC1
IC50 [8]: 62.2 µM (active)

COc1ccc(NC(=O)CC2C(=O)Nc3ccccc3N2CC(=O)N2CCCC2)cc1 (centres undefined)
AC50 [7]: 6.65 µM (active)

COc1ccc(CCNC(=O)c2cc3c(C)nccc3nc2O)cc1OC
IC50 [9]: > 79 µM (inactive)

COc1cc(C)cc2oc(=O)c(CC(=O)N3CCN(C(=O)C4COc5ccccc5O4)CC3)c(C)c12 (centres undefined)
IC50 [9]: > 79 µM (inactive)

Cc1ccc(-c2nnc(O)c3ccccc23)cc1S(=O)(=O)NCCN1CCOCC1
IC50 [9]: 14.2 µM (active)

CCCS(=O)(=O)N1CCN(C2Cc3ccccc3C2)CC1
IC50 [8]: 180 µM (active)

COc1cccc(C(=O)Nc2nnc(-c3ccc(Cl)cc3)o2)c1
IC50 [9]: > 79 µM (inactive)

CC(=O)Oc1cc2oc(=O)cc(C)c2cc1Cl
AC50 [7]: 2.62 µM (active)

CCOC(=O)COc1cc(OCC(=O)OCC)c2c3c(c(=O)oc2c1)CCCC3
IC50 [9]: 10.5 µM (active)

CC1(c2ccccc2)NC(=O)N(CC(=O)Nc2ccc(S(=O)(=O)Nc3ncccn3)cc2)C1=O (centres undefined)
AC50 [7]: 0.675 µM (active)

CC(=O)NC(C)C(c1cccs1)N1CCN(c2ccccc2)CC1 (centres undefined)
AC50 [7]: 0.273 µM (active)
AC50 [10]: 3.98 µM (inconclusive)
AC50 [11]: 39.8 µM (inconclusive)
AC50 [12]: 11.2 µM (inconclusive)

O=C1COc2ccc(-c3nnc(O)c4ccccc34)cc2N1
IC50 [9]: 5.26 µM (active)

CCOc1cc(/C=C(\C#N)C(=O)NCc2cccnc2)ccc1O
IC50 [8]: 42.4 µM (active)

COc1cc(-c2cc(C(=O)O)c3c(OC)c(OC)c(OC)cc3n2)ccc1O
IC50 [8]: 126 µM (active)

CN(CC(=O)Nc1ccccc1Br)C(=O)CCc1nc(O)c2ccccc2n1
IC50 [9]: 12.7 µM (active)

Cc1cc(NC(=O)COC(=O)COc2ccc3c4c(c(=O)oc3c2)CCC4)no1
IC50 [9]: 13.1 µM (active)

COc1ccc(-c2cc(C(=O)N3CCN(c4ccccc4)CC3)c3ccccc3n2)cc1OC
IC50 [9]: 63.6 µM (inactive)

COc1ccc(C2NC(=O)CS2)cc1OC (centres undefined)
AC50 [7]: 0.093 µM (active)

CSc1ccc(CN2CCN(Cc3ccccc3Cl)CC2)cc1
IC50 [8]: 95.1 µM (active)

COc1cc(CNc2ccc(C)c(C)c2)cc(OC)c1OC
AC50 [7]: 9.13 µM (active)

Cn1c(C(=O)Nc2ccc3c(c2)OCCO3)cc2c(=O)n(C)c3ccccc3c21
IC50 [9]: > 79 µM (inactive)

COc1ccccc1CNc1ncc(-c2ccccc2)n1C
IC50 [8]: 49.5 µM (active)

CN(CC(=O)NCc1ccccc1)Cc1cccc(F)c1
IC50 [8]: 67 µM (active)

COc1cc2nc(O)n3nc(-c4ccccc4)nc3c2cc1OC
IC50 [9]: > 79 µM (inactive)

Cc1ccc(S(=O)(=O)c2nc(S(=O)(=O)c3ccccc3)sc2N2CCN(C)CC2)cc1
AC50 [5]: 7.56 µM (active)

O=C(c1cccs1)N1CCN(Cc2ccncc2)CC1
IC50 [8]: 88.5 µM (active)

CN(C)CCNC(C(=O)Nc1cccc(C(F)(F)F)c1)c1ccccc1 (centres undefined)
IC50 [8]: 76.5 µM (active)

CCN1C(=O)c2cccc3c(S(=O)(=O)Nc4ccc(O)c(C(=O)O)c4)ccc1c23
AC50 [7]: 1.55 µM (active)

CC(=O)N1c2ccc(S(=O)(=O)N3CCC(C(=O)N4CCN(c5cc(Cl)ccc5C)CC4)CC3)cc2CC1C (centres undefined)
AC50 [13]: 3.1 µM (active)
AC50 [14]: 6.67 µM (active)

COc1cc2ncnc(N[C@H](C)c3ccccc3)c2cc1OC
AC50 [13]: 8.72 µM (active)
AC50 [14]: 22.7 µM (active)

O=C1CCC(C(=O)Nc2ccccc2N2CCCC2)=NN1
AC50 [7]: 3.7 µM (active)

COc1cc2c(C#CCCCO)c(-c3ccsc3)oc(=O)c2cc1OC
IC50 [9]: > 79 µM (inactive)

O=C(CCc1nc(O)c2ccccc2n1)NNC(=O)c1ccc(Cl)cc1
IC50 [9]: > 79 µM (inactive)

COc1cccc(-c2cnc3c(NC=O)cc(-c4cccc(NC(C)=O)c4)cn23)c1
IC50 [9]: > 79 µM (inactive)

CCN(CC(=O)Nc1ccc(OC)cc1)C(=O)CCc1nc(O)c2ccccc2n1
IC50 [9]: > 79 µM (inactive)

CCN(CC)c1ccc(/C=N/Nc2nc(C)cc(C)n2)c(O)c1
AC50 [15]: 2.84 µM (active)
IC50 [8]: 62.8 µM (active)

O=C(N/N=C/c1cn(-c2ccccc2)nc1-c1cccs1)c1ccccc1F
CC50 [1]: 25.6 µM (active)
IC50 [9]: > 79 µM (inactive)

Cc1nc2c(c(=O)n1CCC1=CCCCC1)c1nc3ccccc3nc1n2/N=C/c1ccccc1
IC50 [9]: > 79 µM (inactive)

CCCCCCn1c(C)nc2c(c1=O)c1nc3ccccc3nc1n2/N=C/c1ccco1
IC50 [9]: 23.3 µM (active)

COc1cc(/C=N/Nc2cc(C)nc(NS(=O)(=O)c3ccccc3)n2)ccc1O
IC50 [8]: 37.8 µM (active)

COc1ccc(OCC(=O)N/N=C/c2cccc3cccnc23)cc1
IC50 [9]: > 79 µM (inactive)

CCN(CC)c1ccc(NC(=O)COC(=O)CCc2cc(OC)c(OC)c(OC)c2)cc1
IC50 [8]: 81.1 µM (active)

C[C@@H]1CN([C@@H](C)CO)C(=O)c2cc(NC(=O)Nc3ccc(C(F)(F)F)cc3)ccc2O[C@@H](C)CCCCO[C@H]1CN(C)Cc1ccc(Cl)c(Cl)c1
AC50 [5]: 9.66 µM (active)

C[C@@H]1CCCCO[C@@H](CN(C)Cc2ccc(C(F)(F)F)cc2)[C@H](C)CN([C@H](C)CO)C(=O)c2cc(NC(=O)Cc3ccccc3)ccc2O1
AC50 [5]: 4.62 µM (active)

COc1cccc(/C=N/NC(=O)NC2CCCCC2)c1O
AC50 [7]: 3.71 µM (active)

COc1cc(/C=N/NC(=O)c2cc(-c3ccc4c(c3)OCO4)[nH]n2)ccc1O
AC50 [7]: 0.408 µM (active)

Cc1ccc(NC(=O)CCC(=O)N/N=C/c2ccc(O)cc2)cc1
IC50 [8]: 51.4 µM (active)

O=C(CN1CCCc2ccccc21)N/N=C/c1ccc(O)cc1O
AC50 [7]: 2.35 µM (active)

C/C(=N\NC(=O)c1ccc(N/N=C(\C)c2ccncc2)cc1)c1ccncc1
AC50 [7]: 0.107 µM (active)

Oc1ccc(/C=N/NC(=S)NCc2ccco2)cc1
IC50 [8]: 35.3 µM (active)

COc1cc(-c2ccc(N)c(OC)c2)ccc1N
IC50 [8]: 9 µM (active)

COc1ccc([C@@]23Oc4cc(OC)cc(OC)c4[C@]2(O)[C@H](O)[C@H](C(=O)N(C)C)[C@H]3c2ccccc2)cc1 [ROCAGLAMIDE]
AC50 [13]: < 0.26 µM (active)
AC50 [14]: 0.889 µM (active)

From ChEMBL document CHEMBL1201862, “PubChem BioAssay data set” (2004)
